Assay: in vivo
Details: dog
Procedure: In the case of dogs, one male and one female Beagle dog were selected for the study. A period of 5 days was used to allow dogs to acclimatize, and at the start of dosing, they were between 5 and 6 months old. Dogs were housed individually per sex in an environmentally controlled room, maintained at 24 ± 2 °C and 71.5 ± 4.5% relative humidity, on a 12–12 h light–dark cycle (beginning at 06:00 h) with 17 or 22 air changes per hour. Dogs were provided with 300 g feed every day and with water ad libitum.
Compound 5 was administered via an intravenous bolus injection through the cephalic vein of the forelimb, using a sterile needle attached to a graduated syringe. An initial dose level of 50 mg/kg b. wt. […] Following a washout period of 7 days, a dose of 75 mg/kg b. wt. […] A constant volume of 1 mL/kg b. wt. was used, with individual doses adjusted to the most recent recorded body weight of each animal. Dogs were observed twice daily for clinical, mortality, and morbidity signs throughout the study period of 7 days. Body weight was recorded on dosing day and every two days during the assay period. Additionally, a daily record of individual dog feed intake and leftover feed was maintained. Blood samples were obtained prior to dosing and on day 7. Blood was extracted either from the cephalic vein in the forelimb or the lateral saphenous vein in the hind limb. Around 2.0 mL of blood was collected in non-heparin centrifuge tubes for serum separation to conduct clinical chemistry estimations. An additional 0.5 mL of blood was collected in EDTA-containing vials for hematology analysis and another 0.5 mL of blood was collected in tubes containing a 3.2% sodium citrate solution for Prothrombin time determination. Dogs were fasted overnight, with only water allowed prior to blood collection. Hematology and clinical chemistry determinations are available upon request. Dogs were euthanized by an intravenous injection of barbiturate (thiopentone sodium 100 mg/kg b. wt.). Then, a comprehensive gross necropsy was performed. Dogs were first examined for external abnormalities. The cranial, thoracic, and abdominal cavities were then dissected, and a thorough examination of the organs was conducted. Specifically, the liver, testes, uterus, brain, and kidneys were collected and subjected to microscopic examination using paraffin-embedded tissue stained with hematoxylin-eosin.

With O=c1[nH]nc(-c2cn(C3CCNCC3)nn2)o1 [compound 5] the MTD at 7 days (both, Beagle, iv) was 75 mg/kg, the “Microscopic Findings, kidneys” value was “Kidneys (bilateral): min ima l infiltration” and the “Microscopic Findings, testes” value was “Testes (bilateral): immature – present”. The “hematology and clinical chemistry parameters” value was “did not show any alteration” and the “terminal body and organ weight” value was “no treatment-related alterations”.

— publication PMC11241262, “Unravelling the Antifibrinolytic Mechanism of Action of the 1,2,3-Triazole Derivatives” (International Journal of Molecular Sciences, 2024)
